In PubChem BioAssay AID2060510 (Molecular Pharmacology Branch, DTP, NCI, 2025):

System: 439559-082-T-J2-PDC spheroids viability
Test: Anticancer human tumor 439559-082-T-J2-PDC patient-derived colon adenocarcinoma cell line growth inhibition [GQUAD]
Settings: for IC50: curve of first compound; for viability, T/C: stronger effect = lower value
Description: DNA G-quadruplex Stabilizer Agents in Combinations in Complex Spheroids
A high-throughput screen of multi-cell type tumor spheroids was designed to identify active combinations of DNA G-quadruplex stabilizer agents and targeted small molecules. Complex spheroids include a stromal component modeled by human endothelial cells (HUVEC) and fibroblasts modeled by human mesenchymal stem cells (MSCs). The concentration ranges selected for each drug and investigational agent were based upon clinically achievable concentrations if the clinical Cmax of the agent was known.
Compounds. The drugs and investigational agents: pidnarulex (CX-5461; NSC782164), APTO-253 (NSC789042), BRACO-19 (NSC847499), peposertib (NSC802822), ceralasertib (NSC780249), elimusertib (NSC800525), camonsertib (NSC841442), AZD-1390 (NSC803789), olaparib (NSC753686), talazoparib (NSC767125), ART-558 (NSC835418), sotorasib (NSC818433), MRTX-1133 (NSC836407), SN-38 (NSC673596), topotecan (NSC609699), etoposide (NSC141540), doxorubicin (NSC123127), gemcitabine (NSC613327), 5-fluorouracil (NSC19893), paclitaxel (NSC125973), vemurafenib (NSC761431), panobinostat (NSC761190), R-306465 (JNJ-16241199; NSC773264), adavosertib (NSC754352), TP-3654 (NSC805149), carboplatin (NSC241240), KSQ-4279 (NSC840948), and staurosporine (NSC755774) were obtained from the National Cancer Institute (NCI) Developmental Therapeutics Program Chemical Repository (34). The FDA-approved anticancer drug set is available from the NCI Developmental Therapeutics Program. […] The stock solutions were prepared in dimethyl sulfoxide (DMSO, Sigma-Aldrich, St. Louis, MO, cat. D2650) at 800-fold the tested concentration and stored at -70 degrees C prior to their use. All drugs and investigational agents were tested over a range starting from a high concentration at or near the clinical Cmax and decreasing in half-log increments. If the clinical Cmax for an agent had not been determined, the highest concentration tested was 10 microM.
2.3 Cell Culture. All cells were maintained in an incubator at 37 degrees C and 5% CO2 with 95% humidity. The PDC lines were cultured according to standard operating procedures established by the NCI PDMR. All PDCs were thawed and cultured in Matrigel-coated flasks prepared with a working solution of 1X Ham's F-12 nutrient mix, without supplementation (Invitrogen, cat. 11765054), 100 U/mL penicillin-streptomycin (Invitrogen, cat. 15140122), and 2.5% Matrigel (Corning Inc., cat. 354248) for the first three passages. The 857933-349-R-J2-PDC line was cultured in 6C/Colon 1B media, which includes advanced DMEM/F-12 (Thermo Fisher Scientific, cat. 12634028), 10 mM HEPES (Thermo Fisher Scientific, cat. 15630080), 1X GlutaMAX supplement (Thermo Fisher Scientific, cat. 35050061), 0.1 mg/mL primocin (InvivoGen, cat. ant-pm-2), 10% defined fetal bovine serum, heat inactivated (HyClone Laboratories Inc., cat. SH30070.03HI), 50% L-WRN conditioned media (ATCC, cat. CRL-3276), 1.25 mM N-Acetyl-L-cysteine (Sigma-Aldrich, cat. A9165), 10 mM nicotinamide (Sigma-Aldrich, cat. N0636), 1X B-27 supplement (Thermo Fisher Scientific, cat. 17504044), 1X N-2 supplement (Thermo Fisher Scientific, cat. 17502048), 10 microM Y-27632 dihydrochloride (Tocris Bioscience, cat. 1254), and 50 ng/mL human EGF recombinant protein (Thermo Fisher Scientific, cat. PHG0311). The 485176-168-R4-J1-PDC line was cultured in Panc media, which includes all 6C/Colon 1B media components plus 100 ng/mL human FGF-10 (Thermo Fisher Scientific, cat. 100-26), 500 nM SB-431542 (Selleckchem, cat. S1067), and gastrin (Tocris, cat. 3006).
[…]
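Further: spheroids exposed to the agents for 7 days before readout.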
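Wherever viability, T/C is given: percent of luminescence signal in DMSO vehicle wells taken as 100% viability.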

C#Cc1c(F)ccc2cc(O)cc(-c3ncc4c(N5CC6CCC(C5)N6)nc(OCC56CCCN5CC(F)C6)nc4c3F)c12 (configuration not stated) + Cc1[nH]c2ccc(F)cc2c1-c1nc2c3cccnc3c3ncccc3c2[nH]1
IC50 (second compound 0.0316 µM): 1.54 µM
IC50 (second compound 0.1 µM): 1.62 µM
IC50 (second compound 0.316 µM): 1.53 µM
IC50 (second compound 1 µM): 1.61 µM
IC50 (second compound 3.16 µM): 0.709 µM
IC50 (second compound 10 µM): 1.01 µM
viability, T/C (second compound 0.0316 µM, first compound 0.0316 µM): 97%
viability, T/C (second compound 0.0316 µM, first compound 0.1 µM): 104%
viability, T/C (second compound 0.0316 µM, first compound 0.316 µM): 87.6%
viability, T/C (second compound 0.0316 µM, first compound 1 µM): 71.9%
viability, T/C (second compound 0.0316 µM, first compound 3.16 µM): 13.7%
viability, T/C (second compound 0.0316 µM, first compound 10 µM): 9.66%
viability, T/C (second compound 0.1 µM, first compound 0.0316 µM): 112%
viability, T/C (second compound 0.1 µM, first compound 0.1 µM): 96.4%
viability, T/C (second compound 0.1 µM, first compound 0.316 µM): 109%
viability, T/C (second compound 0.1 µM, first compound 1 µM): 79.5%
viability, T/C (second compound 0.1 µM, first compound 3.16 µM): 9.72%
viability, T/C (second compound 0.1 µM, first compound 10 µM): 7.59%
viability, T/C (second compound 0.316 µM, first compound 0.0316 µM): 105%
viability, T/C (second compound 0.316 µM, first compound 0.1 µM): 97.9%
viability, T/C (second compound 0.316 µM, first compound 0.316 µM): 90.8%
viability, T/C (second compound 0.316 µM, first compound 1 µM): 74.2%
viability, T/C (second compound 0.316 µM, first compound 3.16 µM): 7.82%
viability, T/C (second compound 0.316 µM, first compound 10 µM): 7.52%
viability, T/C (second compound 1 µM, first compound 0.0316 µM): 91.5%
viability, T/C (second compound 1 µM, first compound 0.1 µM): 91.9%
viability, T/C (second compound 1 µM, first compound 0.316 µM): 101%
viability, T/C (second compound 1 µM, first compound 1 µM): 79.9%
viability, T/C (second compound 1 µM, first compound 3.16 µM): 8.22%
viability, T/C (second compound 1 µM, first compound 10 µM): 5.9%
viability, T/C (second compound 3.16 µM, first compound 0.0316 µM): 72.2%
viability, T/C (second compound 3.16 µM, first compound 0.1 µM): 72.5%
viability, T/C (second compound 3.16 µM, first compound 0.316 µM): 70.8%
viability, T/C (second compound 3.16 µM, first compound 1 µM): 41.1%
viability, T/C (second compound 3.16 µM, first compound 3.16 µM): 5.26%
viability, T/C (second compound 3.16 µM, first compound 10 µM): 2.89%
viability, T/C (second compound 10 µM, first compound 0.0316 µM): 85.2%
viability, T/C (second compound 10 µM, first compound 0.1 µM): 69.3%
viability, T/C (second compound 10 µM, first compound 0.316 µM): 93%
viability, T/C (second compound 10 µM, first compound 1 µM): 50.5%
viability, T/C (second compound 10 µM, first compound 3.16 µM): 2.77%
viability, T/C (second compound 10 µM, first compound 10 µM): 3.31%
